Literature values in patent US6630178B1, “Composition comprising soy protein, dietary fibres and a phytoestrogen compound and use thereof in the prevention and/or treatment of cardiovascular diseases” (Nutri Pharma Asa, priority 1998, dated 2003).

Tested on: estrogenic effect
Conditions: estradiol = 100; in vitro

## O=c1c(-c2ccc(O)cc2)coc2cc(O)ccc12 [daidzein]
  relative estrogenic potency as compared to estradiol: 0.013
